Columns and labels:
[1] = test system: Leptosphaeria nodorum (LEPTNO); assay: In vitro fungitoxicity of hydrazones with and without copper towards Leptosphaeria nodorum (Example 26); type: cell-based; details: test compound Concn. 0.05 μg/mL, 72 h at 25° C.; for inhibition of growth at 0.05 µg/mL: Parastagonospora nodorum, 72 h, copper-minus medium, read-out: LEPTNO % Inhn. Minus Copper Observed; for LEPTNO % Inhn. Plus Copper Observed: copper-plus medium (CuCl2 10 μM)
Phytophthora infestans = type: in vivo, Phytophthora infestans on tomato; details: hydrazone 50 ppm with 50 μM CuCl2.2H2O, applied 24 h before inoculation; assessed 7 days after inoculation; tomato late blight

SMILES	inhibition of growth at 0.05 µg/mL [1] [%]	LEPTNO % Inhn. Plus Copper Observed [1] [%]	TLB % Control (Phytophthora infestans) [%]	melting point [°C]
O=C(N/N=C/c1cc(C(F)(F)F)cc(C(F)(F)F)c1O)c1ccc([N+](=O)[O-])cc1 [Example 339]	1.5	95.4	100.0	244 to 247
O=C(N/N=C/c1cc(C(F)(F)F)cc(C(F)(F)F)c1O)c1ccccc1O [Example 340]	18	96.2	95.0	231 to 235
O=C(N/N=C/c1cc(C(F)(F)F)cc(C(F)(F)F)c1O)c1ccccc1C(F)(F)F [Example 341]	1.2	88.9	63.0	210 to 214
Cc1ccc(C(=O)N/N=C/c2cc(C(F)(F)F)cc(C(F)(F)F)c2O)c(O)c1 [Example 342]	9.1	98.3	86.0	251 to 254
Cc1cccc(C(=O)N/N=C/c2cccc(C(F)(F)F)c2O)c1 [Example 343]	2.8	95.4	97.0	188 to 190
Cc1ccc(C(=O)N/N=C/c2cccc(C(F)(F)F)c2O)cc1 [Example 344]	31.5	91.8	100.0	239 to 241
O=C(N/N=C/c1cccc(C(F)(F)F)c1O)c1cccc(F)c1 [Example 345]	18.8	97.9	97.0	176 to 180
O=C(N/N=C/c1cccc(C(F)(F)F)c1O)c1ccc(F)cc1 [Example 346]	30	96.7	96.0	187 to 188
O=C(N/N=C/c1cccc(C(F)(F)F)c1O)c1cccc(Cl)c1 [Example 347]	13.8	98.4	97.0	185 to 187
O=C(N/N=C/c1cccc(C(F)(F)F)c1O)c1cccc([N+](=O)[O-])c1 [Example 349]	17.4	96.9	97.0	215 to 217
O=C(N/N=C/c1cccc(C(F)(F)F)c1O)c1ccc([N+](=O)[O-])cc1 [Example 350]	11.3	94.9	97.0	253 to 255
Cc1ccc(C(=O)N/N=C/c2cccc(C(F)(F)F)c2O)c(O)c1 [Example 352]	8.8	98.4	100.0	248 to 253
O=C(N/N=C/c1cccc(C(F)(F)F)c1O)c1ccccc1C(F)(F)F [Example 353]	0	94.8	81.0	169 to 171
Cc1cccc(C(=O)N/N=C/c2ccc(Cl)c(Cl)c2O)c1 [Example 354]	18.4	95.4	98.0	212 to 214
Cc1ccc(C(=O)N/N=C/c2ccc(Cl)c(Cl)c2O)cc1 [Example 355]	19.6	89.8	87.0	254 to 256
O=C(N/N=C/c1ccc(Cl)c(Cl)c1O)c1cccc(F)c1 [Example 356]	18.6	98.0	93.0	215 to 218
O=C(N/N=C/c1ccc(Cl)c(Cl)c1O)c1ccc(F)cc1 [Example 357]	56.7	97.4	93.0	244 to 246

Reference: patent publication US20120010075A1 (priority 2009, published 2012)
